Data taken from article PMC9706565, “Covalently Conjugated NOD2/TLR7 Agonists Are Potent and Versatile Immune Potentiators” (Journal of Medicinal Chemistry, 2022).
≈ marks a conversion by molar mass, not a printed value. Read-outs that look alike come from different tables or passages of the source.

Legend:
NOD2 = molecular target: T1, NOD2 (Homo sapiens, UniProt Q9HC29); assay: NF-κB transcriptional activity (SEAP reporter) in HEK-Blue NOD2 cells; format: cell-based; settings: 18 h; for EC50: eight concentrations 1 nM to 10 μM, NA, not active
T1 construct: host or cells: HEK-Blue NOD2 (HEK293-derived)
Excerpt: (§1) HEK-Blue NOD1 (Cat. code: hkb-hnod1), NOD2 (Cat. code: hkb-hnod2), and TLR7 (Cat. code: hkb-htlr7) cell lines (Invivogen, San Diego, CA) are derived from HEK293 cells by co-transfection of the hNOD1, hNOD2, or hTLR7 genes, respectively, and a nuclear factor-κB (NF-κB)-inducible secreted embryonic alkaline phosphatase (SEAP) reporter gene. Following activation of the respective receptors, the resulting NF-κB induces the production of SEAP, the levels of which can be quantified colorimetrically. […] All of the subsequent passages were cultured in medium additionally supplemented with 100 μg/mL Zeocin (Invivogen) and 30 μg/mL Blasticidin (Invivogen) for HEK-Blue NOD1 and NOD2 cells, or with 100 μg/mL Zeocin (Invivogen) and 10 μg/mL Blasticidin (Invivogen) for HEK-Blue TLR7 cells.
(§2) After 18 h of incubation (37 °C, 5% CO2), SEAP activity was determined spectrophotometrically as absorbance at 630 nm (BioTek Synergy microplate reader; Winooski, VT). EC50 values were calculated using the Prism software (version 9; GraphPad Software, CA).

TLR7 = molecular target: T2, TLR7 (Homo sapiens, UniProt Q9NYK1); assay: NF-κB transcriptional activity (SEAP reporter) in HEK-Blue TLR7 cells; format: cell-based; settings: for EC50: HEK-Blue TLR7 cells, 18 h, eight concentrations 1 nM to 10 μM, NA, not active; for fold improved TLR7 activity over 1: ratio of EC50 values in HEK-Blue TLR7 cells
T2 construct: host or cells: HEK-Blue TLR7 (HEK293-derived)
T2 sequence (Q9NYK1 27-1049): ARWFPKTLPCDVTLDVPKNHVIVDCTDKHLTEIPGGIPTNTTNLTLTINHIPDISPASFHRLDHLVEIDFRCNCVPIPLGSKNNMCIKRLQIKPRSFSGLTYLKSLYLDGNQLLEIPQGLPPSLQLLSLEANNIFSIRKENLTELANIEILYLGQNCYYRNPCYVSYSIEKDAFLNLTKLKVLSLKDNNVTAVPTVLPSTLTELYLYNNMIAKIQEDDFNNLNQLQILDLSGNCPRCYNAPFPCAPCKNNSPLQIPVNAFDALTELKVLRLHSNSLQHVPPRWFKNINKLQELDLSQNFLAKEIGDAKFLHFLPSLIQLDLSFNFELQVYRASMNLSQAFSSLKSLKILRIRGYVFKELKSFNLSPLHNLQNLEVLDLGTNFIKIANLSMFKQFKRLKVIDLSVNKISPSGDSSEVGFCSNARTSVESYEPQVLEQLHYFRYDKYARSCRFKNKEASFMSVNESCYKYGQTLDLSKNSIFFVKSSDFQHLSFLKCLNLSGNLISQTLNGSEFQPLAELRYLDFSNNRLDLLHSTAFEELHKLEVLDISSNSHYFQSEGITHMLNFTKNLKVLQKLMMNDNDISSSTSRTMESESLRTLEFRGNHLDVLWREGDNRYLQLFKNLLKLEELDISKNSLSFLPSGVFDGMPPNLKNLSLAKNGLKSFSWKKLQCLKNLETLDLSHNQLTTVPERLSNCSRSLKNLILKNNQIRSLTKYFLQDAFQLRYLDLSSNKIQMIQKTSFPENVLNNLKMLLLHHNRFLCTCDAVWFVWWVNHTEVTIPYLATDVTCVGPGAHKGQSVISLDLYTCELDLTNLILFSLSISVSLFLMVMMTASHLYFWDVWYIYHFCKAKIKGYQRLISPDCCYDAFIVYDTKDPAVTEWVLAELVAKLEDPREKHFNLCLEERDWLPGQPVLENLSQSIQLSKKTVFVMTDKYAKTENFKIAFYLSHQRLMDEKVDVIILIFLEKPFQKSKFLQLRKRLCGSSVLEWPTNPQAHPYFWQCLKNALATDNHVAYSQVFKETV
Excerpt: as §1, §2

RAW-Blue cells = assay: NF-κB transcriptional activity in RAW-Blue cells with or without NOD2/TLR7 antagonists; format: cell-based, murine; settings: 1 μM, 18 h; SG84 (5 μM), M5049 (1 μM)
Method: After the first two passages, 200 μg/mL Zeocin (Invivogen) was added to the medium every other passage, to maintain the selection pressure.
RAW-Blue cells were seeded (100,000 cells/well) in duplicate in 96-well plates in 200 μL of growth medium (without Normocin and Zeocin) and pretreated with a NOD2 antagonist SG84 (5 μM),[35] TLR7 antagonist M5049 (1 μM),[36] or both for 1 h, before the addition of compounds (1 μM) or the corresponding vehicle (0.1% DMSO). After 18 h of incubation (37 °C, 5% CO2), 10 μL of the induced supernatant was added to 90 μL of QUANTI-Blue solution (Invivogen). After 2 h of incubation (37 °C), SEAP activity was determined spectrophotometrically as absorbance at 630 nm (BioTek Synergy microplate reader; Winooski, VT). Statistical significance was determined with two-way ANOVA with subsequent Dunnett’s multiple comparisons test.

K562 cells = assay: PBMC cytotoxicity against K562 cancer cells; format: cell-based; settings: for cytolytic activity of PBMCs against K562 cells: PBMCs stimulated 18 h, 1 μM, 4 h coincubation, effector:target 40:1
Method: (§3) K562 cells are a chronic myelogenous leukemia cell line (Cat. code: CCL-243; ATCC, Manassas, VA)[60] and MEC1 cells are a B-chronic lymphocytic leukemia cell line (Cat. code: ACC 497; DSMZ GmbH, Braunschweig, Germany).[61]
(§4) The PBMC cytotoxicity assays using K562 and MEC1 cells were performed as described previously, with some modifications.[64] PBMCs were seeded (4 × 10^5 cells/well) in duplicate in 96-well U-bottom plates and treated with the compounds (1 nM–1 μM) or vehicle (0.1% DMSO) for 18 h. […] Cells that were positive for both CFSE and Sytox blue were defined as dead K562 and MEC1 cells. The gating strategy is described in Figure S4. PBMCs alone and CFSE-labeled cancer cells alone were also treated with the compounds at the same concentrations and stained with Sytox blue to exclude any direct cytotoxicity of the compounds toward the PBMCs and cancer cells. Statistical significance was determined with one-way ANOVA with subsequent Bonferroni’s multiple comparisons test.

MEC1 cells = assay: PBMC cytotoxicity against MEC1 cancer cells; format: cell-based, human; settings: PBMCs stimulated 18 h, 1 μM; 4 h coincubation, effector:target 40:1
Method: as §3, §4

[1] = Kinetic solubility measurement; format: physicochemical; settings: for solubility at 2 h: phosphate-buffered saline, aqueous buffer, kinetic from dmso stock, kinetic, PBS pH 7.4, 2% DMSO, 2 h room temperature
Method: The content of DMSO in all solutions was fixed to 2% by adding the respective amounts of DMSO. The column used was Waters Acquity UPLC BEH C18 (1.7 μm, 2.1 × 50 mm^2). […] The column was thermostated at 40 °C.

human PBMCs [2] = assay: Cytokine release from peripheral blood mononuclear cells; format: cell-based; settings: 1 μM, 18 h
Method: Human PBMCs from healthy and consenting donors were isolated from heparinized blood by density gradient centrifugation using Ficoll-Paque (Pharmacia, Sweden).
Peripheral blood mononuclear cells were seeded (1 × 10^6 cells/mL) in 24-well plates in 500 μL of growth medium and treated with the compounds (1 μM), lipopolysaccharide (LPS; 1 μg/mL), or the corresponding vehicle (0.1% DMSO). Cell-free supernatants were collected after 18 h of incubation (37 °C, 5% CO2) and stored at −80 °C until tested. Cytokine production was determined with BD Cytometric Bead Array human inflammatory cytokines kit (BD Bioscience) on an Attune NxT flow cytometer (Thermo Fisher Scientific, Waltham, MA). Standard curves were generated using recombinant cytokines contained in the kit. The data were analyzed using the FlowJo (Tree Star, Inc., Ashland, OR) and Prism (GraphPad, San Diego, CA) software. Statistical significance was determined with one-way ANOVA with subsequent Bonferroni’s multiple comparisons test.

human PBMCs [3] = format: cell-based
NIH/OlaHsd mice = assay: Mouse immunization with OVA, OVA-specific serum antibodies (ELISA); format: in vivo; settings: s.c. days 0, 21, 42; OVA 10 μg + compound 50 μg; 7 days after last dose
Method: NIH/OlaHsd inbred mice were raised at the Institute of Immunology, Croatia. All mice used were females, from 2.0 to 2.5 months old. During the experimental period, the mice were housed in the Animal Facility of the Institute of Immunology, with food and water provided ad libitum.
Sex-matched NIH/OlaHsd mice (five per group) were immunized subcutaneously into the tail base with OVA (10 μg; Serva, Germany) alone or plus the compounds (50 μg) on days 0, 21, and 42. The injection volume in all of the experimental groups was 0.1 mL per mouse. On the seventh day after the second booster dose, the mice were anesthetized with i.p. application of ketamine/xylazine (25 mg/kg each) prior to blood collection from the axillary plexus. Individual sera from each animal were decomplemented at 56 °C for 35 min and then stored at −20 °C until tested.
The levels of the OVA-specific total IgG, IgG1, and IgG2a in mice sera were determined by ELISA. Briefly, high-binding ELISA plates (Costar) were coated with a 15 μg/mL solution of OVA (Serva, Germany) in carbonate buffer (pH 9.6). Nonspecific antibody binding was blocked by 0.5% w/v bovine serum albumin in PBS-T (0.05% [v/v] Tween 20 in PBS) for 2 h at 37 °C. After washing, five serial dilutions of mice sera and standard preparations were added in duplicates. Plates were incubated overnight at room temperature, washed, and analyzed for OVA-specific IgG levels by incubation with HRP-conjugated goat anti-mouse IgG (2 h at 37 °C; Bio-Rad Laboratories), and then after washing, with 0.6 mg/mL o-phenylenediaminedihydrochloride solution in citrate-phosphate buffer, pH 5.0, with 0.5 μL 30% H2O2/mL for 30 min at room temperature in the dark. The enzymatic reaction was stopped with 12.5% H2SO4, and absorbance at 492 nm was measured using a microplate reader (Thermo Fisher Scientific, Waltham, MA).
For the determination of OVA-specific IgG1 and IgG2a, the plates were incubated with biotin-conjugated rat anti-mouse IgG1 or IgG2a (2 h at 37 °C; PharMingen, Becton Dickinson) and subsequently with streptavidin-peroxidase (Pharmingen) for 2 h at 37 °C. After washing, the substrate solution was added and incubated for 30 min at room temperature in the dark, as described above. The enzymatic reaction was stopped with 12.5% H2SO4 and absorbance at 492 nm was measured using a microplate reader. The relative quantities of antibodies were determined by parallel line assays using appropriate standard preparations of anti-OVA IgG, anti-OVA IgG1, and anti-OVA IgG2a antibodies with voluntarily assigned 20.000 AU/mL, 400.000 AU/mL, and 5000 AU/mL, respectively.[65] Statistical significance was determined with one-way ANOVA with subsequent Dunnett’s multiple comparisons test.

[4] = tested 1 nM-1 μM, cancer cell line not specified (K562 or MEC1, Figure S5)

T1 sequence (Q9HC29 whole entry): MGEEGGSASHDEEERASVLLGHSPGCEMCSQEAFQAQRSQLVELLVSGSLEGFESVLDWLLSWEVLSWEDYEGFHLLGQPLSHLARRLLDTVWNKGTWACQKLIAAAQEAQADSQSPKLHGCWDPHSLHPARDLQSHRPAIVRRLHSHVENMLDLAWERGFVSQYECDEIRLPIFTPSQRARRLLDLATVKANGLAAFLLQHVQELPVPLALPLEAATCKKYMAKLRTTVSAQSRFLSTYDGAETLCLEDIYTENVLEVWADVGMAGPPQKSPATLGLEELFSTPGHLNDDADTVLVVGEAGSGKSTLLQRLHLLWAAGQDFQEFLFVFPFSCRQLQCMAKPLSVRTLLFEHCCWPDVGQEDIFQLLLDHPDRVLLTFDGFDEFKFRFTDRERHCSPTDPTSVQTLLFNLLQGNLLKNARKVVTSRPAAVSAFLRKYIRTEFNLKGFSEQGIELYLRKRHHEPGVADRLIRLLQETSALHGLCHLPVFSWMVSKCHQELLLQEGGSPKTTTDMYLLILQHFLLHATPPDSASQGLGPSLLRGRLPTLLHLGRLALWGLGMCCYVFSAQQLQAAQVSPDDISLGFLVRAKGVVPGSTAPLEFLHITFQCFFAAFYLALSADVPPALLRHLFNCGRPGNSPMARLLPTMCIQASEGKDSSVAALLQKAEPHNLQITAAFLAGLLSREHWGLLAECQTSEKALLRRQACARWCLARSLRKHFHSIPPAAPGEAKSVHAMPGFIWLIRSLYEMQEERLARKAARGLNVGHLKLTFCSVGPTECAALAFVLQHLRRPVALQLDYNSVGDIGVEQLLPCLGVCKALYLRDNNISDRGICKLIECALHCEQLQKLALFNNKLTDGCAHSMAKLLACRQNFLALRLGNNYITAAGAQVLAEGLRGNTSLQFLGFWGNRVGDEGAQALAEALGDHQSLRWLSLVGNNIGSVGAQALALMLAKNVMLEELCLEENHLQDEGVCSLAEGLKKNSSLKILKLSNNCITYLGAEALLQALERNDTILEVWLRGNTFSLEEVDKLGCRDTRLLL

CCCCOc1nc(N)c2nc(O)n(Cc3ccc(C(=O)NCCCCCC(=O)Oc4ccc(/C=C/C(=O)NCC(=O)N[C@H](C(=O)N[C@H](CCC(=O)OCC)C(=O)OCC)C(C)C)cc4OC)cc3)c2n1 [Compound 3, Diethyl ((E)-3-(4-((6-(4-((6-amino-2-butoxy-8-hydroxy-9H-purin-9-yl)methyl)benzamido)hexanoyl)-oxy)-3-methoxyphenyl)acryloyl)glycyl-L-valyl-D-glutamate]
EC50 (NOD2): 114 nM
EC50 (TLR7): 161 nM
fold improved TLR7 activity over 1 (TLR7): approximately 2 fold
RAW-Blue activity in the presence of NOD2 or TLR7 antagonist (RAW-Blue cells): decrease in activity after antagonizing TLR7 was more prominent
cytolytic activity of PBMCs against K562 cells (K562 cells): significantly enhanced
concentration at which significant PBMC cytotoxicity was observed (K562 cells; [4]): 1000 nM
cytolytic activity of PBMCs against MEC1 cells (MEC1 cells): significantly enhanced
solubility at 2 h [1]: 27.4 µM (≈ 27.1 µg/mL)

CCOC(=O)CC[C@@H](NC(=O)[C@@H](NC(=O)CNC(=O)/C=C/c1ccc(O)c(OC)c1)C(C)C)C(=O)OCC [Compound 2, Diethyl ((E)-3-(4-hydroxy-3-methoxyphenyl)acryloyl)glycyl-L-valyl-D-glutamate]
IL-8 production (human PBMCs [2]): significant increase

CCCCOc1nc(N)c2nc(O)n(Cc3ccc(C(=O)NCCOCCNC(=O)CC[C@@H](NC(=O)[C@@H](NC(=O)CNC(=O)/C=C/c4ccc(O)c(OC)c4)C(C)C)C(=O)OCC)cc3)c2n1 [Compound 4, Ethyl N5-(2-(2-(4-((6-amino-2-butoxy-8-hydroxy-9H-purin-9-yl)methyl)benzamido)ethoxy)ethyl)-N2-((E)-3-(4-hydroxy-3-methoxyphenyl)acryloyl)glycyl-L-valyl-D-glutaminate]
NOD2 activation at the highest concentration tested (NOD2; 10 μM): activated NOD2 only to a minor extent
EC50 (NOD2): > 10000 nM
EC50 (TLR7): 36 nM
fold improved TLR7 activity over 1 (TLR7): 10 fold
IL12p70 secretion (human PBMCs [2]): induced secretion of IL12p70
production of IL-1β, IL-6, IL-8, IL-10 and TNF (human PBMCs [2]): considerably stronger effects compared to 3
Genes in KEGG pathway, 4-enriched (human PBMCs [3]; Chemokine signaling pathway (total 182)): 40
Genes in KEGG pathway, 4-enriched (human PBMCs [3]; Hematopoietic cell lineage (total 97)): 31
Genes in KEGG pathway, 4-enriched (human PBMCs [3]; Influenza A (total 182)): 33
Genes in KEGG pathway, 4-enriched (human PBMCs [3]; NF-kappa B signaling pathway (total 107)): 25
transcription of IFN-γ and both IL-12 subunits (IL12A, IL12B) (human PBMCs [3]; PBMCs, 1 μM, 18 h): strongly upregulated
transcription of IL-17A, IL-17F, IL-22 and IL-26 (human PBMCs [3]; PBMCs, 1 μM, 18 h): induced transcription
transcription of Th2-associated genes (IL-4, IL-5, IL-13, STAT6, GATA3) (human PBMCs [3]; PBMCs, 1 μM, 18 h): remained unchanged
number of significantly downregulated genes (human PBMCs [3]; PBMCs, three donors, 1 μM, 18 h, FDR <0.05, fold-change <0.5): 877
number of significantly upregulated genes (human PBMCs [3]; PBMCs, three donors, 1 μM, 18 h, […]): 962
Genes in KEGG pathway, 4-enriched (human PBMCs [3]; Pathways in cancer (total 395)): 56
Genes in KEGG pathway, 4-enriched (human PBMCs [3]; Phagosome (total 168)): 33
Genes in KEGG pathway, 4-enriched (human PBMCs [3]; Rheumatoid arthritis (total 99)): 25
Genes in KEGG pathway, 4-enriched (human PBMCs [3]; TNF signaling pathway (total 115)): 28
Genes in KEGG pathway, 4-enriched (human PBMCs [3]; Transcriptional misregulation in cancer (total 204)): 37
cytolytic activity of PBMCs against K562 cells (K562 cells): significantly enhanced
lowest concentration with significant effect on PBMC cytotoxicity (K562 cells; [4]): 10 nM
cytolytic activity of PBMCs against MEC1 cells (MEC1 cells): significantly enhanced
IgG2a/IgG1 ratio (Th1/Th2 polarization) (NIH/OlaHsd mice): trend toward increased IgG2a/IgG1 ratios
OVA-specific IgG1 titers (NIH/OlaHsd mice): increased the titers
OVA-specific IgG2a titers (NIH/OlaHsd mice): increased the titers
serum OVA-specific IgG titers (NIH/OlaHsd mice): significantly higher
fold higher solubility of 4 than 3 ([1]; kinetic solubility, Table S2): approximately 2 fold
solubility at 2 h [1]: 58.2 µM (≈ 54.3 µg/mL)

CCCCOc1nc(N)c2nc(O)n(Cc3ccc(C(=O)O)cc3)c2n1 [Compound 1, 4-((6-Amino-2-butoxy-8-hydroxy-9H-purin-9-yl)methyl)benzoic acid, reference compound]
EC50 (TLR7): 398 nM
